Measurements from PubChem BioAssay (NCI).
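Five concentrations, 48 hours, 96-well plates. The concentration for 50% growth inhibition is given as GI50. At the TGI there is no net growth.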

Tests used:
Test in all cases: NCI-60 cell line screen, 48 h
MOLT-4 leukemia = tested on: MOLT-4 leukemia
M14 melanoma = tested on: M14 melanoma
HCC-2998 colon = tested on: HCC-2998 colon
OVCAR-8 ovarian = tested on: OVCAR-8 ovarian
UACC-62 melanoma = tested on: UACC-62 melanoma
SF-268 CNS = tested on: SF-268 CNS
SW-620 colon = tested on: SW-620 colon
KM12 colon = tested on: KM12 colon
K-562 leukemia = tested on: K-562 leukemia
786-0 renal = tested on: 786-0 renal

SMILES | TGI (MOLT-4 leukemia) [µM] | TGI (M14 melanoma) [µM] | TGI (HCC-2998 colon) [µM] | TGI (OVCAR-8 ovarian) [µM] | TGI (UACC-62 melanoma) [µM] | TGI (SF-268 CNS) [µM] | TGI (SW-620 colon) [µM] | TGI (KM12 colon) [µM] | TGI (K-562 leukemia) [µM] | TGI (786-0 renal) [µM] | GI50 (MOLT-4 leukemia) [µM] | GI50 (M14 melanoma) [µM] | GI50 (HCC-2998 colon) [µM] | GI50 (OVCAR-8 ovarian) [µM] | GI50 (UACC-62 melanoma) [µM] | GI50 (SF-268 CNS) [µM] | GI50 (SW-620 colon) [µM] | GI50 (KM12 colon) [µM] | GI50 (K-562 leukemia) [µM] | GI50 (786-0 renal) [µM]
Cc1c(C(=O)C/C(=N/NC(=O)CC#N)C(N)=O)[n+](=O)c2ccccc2n1[O-] | > 100 | > 100 | > 100 | > 100 | > 100 | > 100 | 34.5 | > 100 | > 100 | > 100 |  |  |  |  |  |  |  |  |  | 
CS(=O)(=O)Nc1ccc(Nc2c3ccccc3nc3cc(Cl)ccc23)cc1 | 16.2 | 15.1 | 22.9 | 15.6 | 12.9 | 19.6 | 15.4 | 18.5 | > 48.6 | 15.6 | 0.214 | 0.812 | 7.57 | 1.76 | 0.988 | 2.57 | 0.686 | 3.81 | 2.11 | 0.857
O=C1COc2cc3c(cc2N1)SCC(=O)N3 | > 100 | > 100 | > 100 | > 100 | > 100 | > 100 | > 100 | > 100 | > 100 | > 100 |  |  |  |  |  |  |  |  |  | 
C=CCCC1(CCP(=O)(c2ccccc2)c2ccccc2)OCCO1 | > 100 | > 100 | > 100 | > 100 | > 100 | > 100 | > 100 | > 100 | > 100 | > 100 |  |  |  |  |  |  |  |  |  | 
Nc1ccc(N)c2c1C(=O)c1cccc([N+](=O)[O-])c1C2=O | > 91.4 | > 100 | 1.49 | 19.7 | 5.65 | > 89.4 | > 100 | > 100 | > 100 | 32.1 | 8.33 | 3.37 | 0.373 | 2.67 | 1.2 | 5.07 | 2.41 | 4.15 | 5.45 | 2.72
CC1=C2[C@@H](c3ccccc3)C3C=CC2(C=C3C(F)(F)F)N(C(=O)NC2CCCCC2)C1=O (stereo not given in full) | > 100 | > 100 | > 100 | > 100 | > 100 | > 100 | > 100 | > 100 | > 100 | > 100 |  |  |  |  |  |  |  |  |  | 
CCOC(=O)c1c(/C=N\Nc2ccccc2)nc2ccccc2c1-c1ccccc1 | 68.8 | > 100 | 77 | > 100 | 76.9 | > 100 | > 100 | > 100 | > 100 | > 100 |  |  |  |  |  |  |  |  |  | 
Nc1nc(N)c(-c2ccccc2)c(C(=O)Nc2nccs2)n1 | > 100 | > 100 | > 100 | > 100 | > 100 | > 100 | > 100 | > 100 | > 100 | > 100 |  |  |  |  |  |  |  |  |  | 
CCC(=C(c1ccc(OCCN(CC)CC)cc1)c1ccc(OCCN(CC)CC)cc1)c1ccc(Cl)cc1 | 1.3 | 1.11 | 1.02 | 1.51 | 1.13 | 1.23 | 1.12 | 1.18 | 0.898 | 1.08 | 0.583 | 0.585 | 0.532 | 0.685 | 0.592 | 0.604 | 0.572 | 0.611 | 0.156 | 0.565
COc1ccc(Cl)cc1Nc1nc(C(F)(F)F)ccc1C(=O)N/N=C/c1ccc(Cl)cc1 | 11.1 | > 100 | > 100 | > 100 | 40.9 | 27.9 | > 100 | > 100 | 40.5 | 7.09 | 1.76 | 3.69 | 2.67 | 5.1 | 8.01 | 1.96 | 8.2 | 5.16 | 3.85 | 1.22
Cn1c(=O)c(Oc2ccc(F)cc2F)cc2cnc(NC3CCC(O)CC3)nc21 (stereo not given) | > 25 | > 25 | > 25 | > 25 | > 25 | > 25 | > 25 | > 25 | > 25 | > 25 | > 25 | > 25 | > 25 | > 25 | > 25 | > 25 | > 25 | > 25 | > 25 | > 25
N#Cc1c(N/N=C/c2c(Cl)cccc2Cl)nc(N)nc1N1CCCC1 | 18.3 | > 100 | 21 | 40.5 | > 100 | > 100 | > 100 | > 100 | 6.75 | > 100 | 2.88 | 1.36 | 1.34 | 3.53 | 1.47 | > 100 | 1.38 | 3.02 | 2.87 | 3.93
